{
  "source": "paper PMC9728921",
  "about": "“Characterization of a KDM5 small molecule inhibitor with antiviral activity against hepatitis B virus” (PLOS ONE, 2022)",
  "tested_on": "host and viral transcriptomes in PHH",
  "assay": "RNA-seq of HBV-infected PHH",
  "assay_type": "cell-based, human",
  "conditions": "0.03, 0.3, or 10 μM; days 1, 3, 10, 13",
  "method": "(D) Hallmark Gene Set. […] For comparison, downregulation of HBV mRNA for same dose and time regiment is shown at the top.\nLibrary building and sequencing for RNA-seq of PHH and rat liver was performed on all samples at EA Genomics/Q2 Solutions (Morrisville, NC). Approximately 100 mg of rat liver tissue from the left later lobe was flash frozen immediately after collection. PHH were lysed into RLT buffer (Qiagen; 79216) and immediately frozen. Liver/PHH samples were homogenized in QIAzol Lysis Reagent (79306) and after addition of chloroform the samples were separated into aqueous and organic phases by centrifugation. Ethanol was added to the upper aqueous phase and the sample was applied to an RNeasy Mini spin column (74104) for purification and RNA eluted with water. Libraries were prepared using the Illumina TruSeq stranded mRNA sample preparation kit according to the manufacturer’s protocol (Illumina, Inc., Hayward, CA; RS-122-2103). Approximately 30 million 2 x 50 bp paired-end reads were collected per sample using the Illumina HiSeq2000 sequencing platform. Sequencing reads were aligned to the human, rat, or HBV genomes by STAR [49]. The Bioconductor packages edgeR [50] and limma were used to normalize sequence count data (counts per million; cpm) and conduct differential gene expression analysis. The false discovery rate (FDR) was calculated using the Benjamini-Hochberg method.",
  "data": [
    {"compound": "CCOC(=O)c1ccnc(CNCC(=O)N(CC)CCN(C)C)c1", "note": "[GS-5801]", "values": [
      {"measurement": "levels of HBV mRNA as measured by RNA-seq", "result": "decreased after GS-5801 treatment in a dose and time dependent manner"}
    ]}
  ]
}
